Test results published in PMC6297231 (Nature Communications, 2018).
Read-outs that look alike come from different tables or passages of the source.

What was measured:
RCPIWM1 = assay: Cell viability assay; assay type: cell-based; conditions: 24 h; RCPIWM1 (NHL); read-out: AZD5991 24h GI50
Protocol: (§5) Cells were plated at 3000 cells/well in 384-well white plates in corresponding cell growth media. […] Caspase-3/7 activation was subsequently determined using a Caspase-Glo 3/7 Reagent (Promega) and viability was assayed using the CellTiter-Glo Reagent (Promega) as described in manufacturer’s instructions. Dose–response curves for caspase-3/7 activation and viability were plotted and analyzed (including EC50 and GI50 determination) using GraphPad Prism.

RI1 = assay: Cell viability assay; assay type: cell-based; conditions: Ri-1, 24 h; RI1 (NHL); read-out: AZD5991 24h GI50
Protocol: as §5

MOLP8 = assay: Cell viability assay; assay type: cell-based; conditions: Homo sapiens, MOLP-8, 24 h; MOLP8 (MM); read-out: AZD5991 24h GI50
Bfl-1 = target: T1, Bfl-1 (Homo sapiens, UniProt Q16548); assay: TR-FRET binding assay
T1 construct: N-Terminal 6His-tagged Bfl-1 protein from Bfl-1 (M1-K151); made in house; host or cells: E. coli
From the text: (§1) N-terminal GST-tagged-Mcl-1 protein from Mcl-1 (E171-G327), N-terminal GST-tagged Bcl-xL protein from Bcl-xL (1-209), N-Terminal 6His-tagged Bfl-1 protein from Bfl-1 (M1-K151), N-Terminal 6His-tagged Bcl-w protein from Bcl-w (M1-R171), and C-Terminal 6His-tagged Bcl-2 protein from Bcl-2 (M1-F212) were expressed as a tagged fusion protein in E. coli and subsequently purified via Glutathione Sepharose-affinity or Ni-NTA resin purification, and size-exclusion chromatography.
(§2) For TR-FRET, tagged fusion proteins were incubated with a Europium-labeled antibody and a HyLite Fluor 647-labeled peptide, or a biotin-labeled peptide with a streptavidin-labeled ulight fluorophore allowing the assembly of donor and acceptor dye pairs for use in protein-binding assays.
(§3) The reaction final concentrations for Mcl-1 were 1.5 nM GST-Mcl-1, 0.5 nM LanthaScreen Eu tagged GST antibody (LifeTechnologies cat#PV5594), and 4 nM HyLite Fluor 647-labeled Bim peptide C (Hilyte647 C2 Maleimide)-[…]; for Bcl-xl were 2 nM GST-Bcl-xl, 2 nM LanthaScreen Eu-tagged GST antibody, and 10 nM HyLite Fluor 647-labeled BAK peptide C(Hilyte647 C2 Maleimide)-[…]; for Bfl-1 were 4 nM His-Bfl-1, 0.5 nM LanthaScreen Eu-tagged HIS antibody (PerkinElmer cat#AD0205), and 10 nM HyLite Fluor 647-labeled BIM peptide C(Hilyte647-C2-Maleimide)-[…]; for Bcl-2 and Bcl-w: 2 nM His-Bcl-2, or 2 nM His-Bcl-w, with 0.5 nM LanthaScreen Eu-tagged HIS antibody, 10 nM biotin-labeled Bim peptide (Biotin-lc-[…]), and 2.4 nM a streptavidin labeled ULight Fluorophore (PerkinElmer cat#TRF0102-D). Reactions were incubated at 24 °C for 120–180 min before reading on a Tecan (InfiniteM1000 spectrofluorometer) with excitation at 340 nm and emission at […] and 665 nm. Ratio of fluorescent emission intensity at 665–620 nm was calculated for each reaction (equation 1). Percent inhibition was calculated based upon min (control compound) vs. max (DMSO) according to Eq. (2) and the IC50 was derived the smart fit curve (Genedata screener) of % inhibition vs. concentration. Ki values were calculated from Eq. […]

Bcl-2 = target: T2, Bcl-2 (Homo sapiens, UniProt P10415); assay: TR-FRET binding assay
T2 construct: C-Terminal 6His-tagged Bcl-2 protein from Bcl-2 (M1-F212); made in house; host or cells: E. coli
From the text: as §1, §2, §3

Bcl-xL = Bcl-xL (Homo sapiens, UniProt Q07817); assay: TR-FRET binding assay
From the text: as §1, §2, §3

Bcl-w = target: T3, Bcl-w (Homo sapiens, UniProt Q92843); assay: TR-FRET binding assay
T3 construct: N-Terminal 6His-tagged Bcl-w protein from Bcl-w (M1-R171); made in house; host or cells: E. coli
T3 sequence (Q92843 1-171): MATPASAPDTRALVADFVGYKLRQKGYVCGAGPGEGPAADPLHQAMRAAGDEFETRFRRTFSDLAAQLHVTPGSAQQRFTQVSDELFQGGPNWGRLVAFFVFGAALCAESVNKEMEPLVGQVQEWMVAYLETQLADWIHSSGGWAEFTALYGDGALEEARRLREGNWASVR
From the text: as §1, §2, §3

H446 = assay: Cell viability assay; assay type: cell-based; conditions: Homo sapiens, NCI-H446, 24 h; H446 (Lung); read-out: AZD5991 24h GI50
Protocol: as §5

H460 = assay: Cell viability assay; assay type: cell-based; conditions: Homo sapiens, NCI-H460, 24 h; H460 (Lung); read-out: AZD5991 24h GI50
Protocol: as §5

MOLP-8 tumors = assay: MOLP-8 subcutaneous xenograft efficacy; assay type: in vivo
Protocol: (§4) Female C.B.-17 SCID mice and female nude rats were purchased from Charles River Laboratories. […]. All xenograft studies were conducted at our Association for the Assessment and Accreditation of Laboratory Animal Care accredited facility in Waltham, MA in accordance with ethical regulations described in the guidelines established by the internal Institutional Animal Care and Use Committee. […]. In mice, drugs were dosed intravenously in a volume of 5 mL kg^-1 except for venetoclax that was dosed orally in a volume of 10 mL kg^-1. […]. Ten million MV4-11 cells were injected subcutaneously in the right flank of rats in a volume of 0.1 mL. Tumor volumes (measured by caliper), animal body weight, and tumor condition were recorded twice weekly for the duration of the study. The tumor volume was calculated using the formula: length (mm) × width (mm)^2[…]. For efficacy studies, growth inhibition from the start of treatment was assessed by comparison of the differences in tumor volume between control and treated groups. Statistical significance was evaluated using non-parametric, unpaired, two-tailed t-test. For efficacy studies, animals were randomized based on tumor volumes using stratified sampling, and enrolled into control and treatment groups. Dosing began when mean tumor size reached ~230 mm^3 in mice and 900 mm^3 in rats. Mice were euthanized once tumor size reached 2000 mm^3. Mice were excluded from the study upon body weight loss > 10% of the body weight at the initiation of the study. For pharmacokinetic analysis, plasma samples were precipitated and diluted with acetonitrile containing internal standard and analyzed by LC–MS/MS versus a calibration curve of known concentrations.

NCI-H929 tumors = assay: NCI-H929 subcutaneous xenograft efficacy; assay type: in vivo, mice; conditions: single i.v. dose 100 mg kg^−1
Protocol: as §4, with “For efficacy studies, animals were randomized based on tumor volumes using stratified sampling, and enrolled into control and treatment groups. Dosing began when mean tumor size reached ~230 mm^3 in mice and 900 mm^3 in rats. Mice were euthanized once tumor size reached 2000 mm^3. Mice were excluded from the study upon body weight loss > 10% of the body weight at the initiation of the study.” left out

MOLM13 = assay: Caspase-3/7 activation assay; assay type: cell-based; conditions: Homo sapiens, MOLM-13, 6 h
Protocol: as §5

[1] = single i.v. dose 60 mg kg^−1, ten days after treatment

T2 sequence (P10415 1-212): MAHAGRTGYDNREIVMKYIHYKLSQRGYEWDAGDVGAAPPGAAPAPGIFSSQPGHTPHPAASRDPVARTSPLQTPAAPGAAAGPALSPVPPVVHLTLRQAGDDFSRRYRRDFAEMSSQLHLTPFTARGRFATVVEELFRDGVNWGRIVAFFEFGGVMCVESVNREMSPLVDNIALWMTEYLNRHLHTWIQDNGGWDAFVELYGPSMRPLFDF
Chain of Bcl-xL (Q07817 1-209): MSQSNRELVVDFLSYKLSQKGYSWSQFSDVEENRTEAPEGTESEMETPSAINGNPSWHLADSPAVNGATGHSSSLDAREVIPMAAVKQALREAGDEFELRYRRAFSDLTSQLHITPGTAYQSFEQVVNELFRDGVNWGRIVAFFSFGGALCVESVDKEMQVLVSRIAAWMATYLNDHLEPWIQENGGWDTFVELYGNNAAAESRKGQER
T1 sequence (Q16548 1-151): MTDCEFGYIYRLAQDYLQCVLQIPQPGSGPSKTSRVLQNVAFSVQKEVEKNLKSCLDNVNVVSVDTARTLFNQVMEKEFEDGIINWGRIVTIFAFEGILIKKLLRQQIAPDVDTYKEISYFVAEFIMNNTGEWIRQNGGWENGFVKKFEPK

For `Cc1c2c(nn1C)CSCc1cc(n(C)n1)CSc1cc(c3ccccc3c1)OCCCc1c(C(=O)O)n(C)c3c-2c(Cl)ccc13` (atropisomer, axis not shown; (Ra)) [(Ra)-7], the GI50 (RCPIWM1) was 0.02 µM, the GI50 (RI1) was 28.2 µM and the GI50 (MOLP8) was 0.052 µM. The IC50 (Bfl-1; FRET) was 24 µM, the Ki (Bfl-1; calculated from FRET IC50) was 12 µM and the IC50 (Bcl-2; FRET) was 20 µM. It also gave a Ki (Bcl-2; calculated from FRET IC50) of 6.8 µM, an IC50 (Bcl-xL; FRET) of 36 µM and a Ki (Bcl-xL; calculated from FRET IC50) of 18 µM. For the same compound, the IC50 (Bcl-w; FRET) was 49 µM, the Ki (Bcl-w; calculated from FRET IC50) was 25 µM and the GI50 (H446) was 0.319 µM. For the same compound, the GI50 (H460) was 26.4 µM, the “tolerability, body weight” value (MOLP-8 tumors; all dose levels, 10–100 mg kg^−1 single i.v. dose) was “no significant body weight loss” and the “mice with tumor regression after second dose” value (MOLP-8 tumors; single dose 36 days after the first dose, 100 mg kg^−1 i.v., regrown tumors) was 4 out of 4. For the same compound, the “tumor growth inhibition (TGI)” value (MOLP-8 tumors; single i.v. dose 10 mg kg^−1, ten days after treatment) was 52%, the “tumor growth inhibition (TGI)” value (MOLP-8 tumors; single i.v. dose 30 mg kg^−1, ten days after treatment) was 93% and the “mice with no detectable tumors” value (MOLP-8 tumors; [1]) was 6 out of 7. The “tumor regression (TR)” value (MOLP-8 tumors; [1]) was 99%, the “mice with complete TR” value (MOLP-8 tumors; single i.v. dose 100 mg kg^−1, ten days after treatment) was 7 out of 7 and the “mice with complete tumor regression” value (NCI-H929 tumors) was “four out of four”. The EC50 (MOLM13; read-out: 6h caspase EC50, MOLM13, single agent) was 0.108 µM and the EC50 (MOLM13; read-out: AZD5991 6h EC50, MOLM13 (AML), caspase 3/7 activation) was 0.063 µM.
